Assay results published in patent US9782420B2, “Method for treating eye diseases” (Kyoto University, priority 2013, dated 2017).

What was measured:
[1] = tested on: CCR2 (monocyte chemoattractant protein 1 (MCP-1) receptor) deficient mice; test: Experiment 1: Removal of drusen in aged mice; type: in vivo
Description: Experiment 1: Removal of Drusen in Aged Mice
The effect of the compound of number 32 (Compound 32) to remove previously formed drusen in relatively aged mice was tested. CCR2 (monocyte chemoattractant protein 1 (MCP-1) receptor) deficient mice were used. The mice in the group of Compound 32 (n=30 eyes) were orally administered with 50 mg/kg/day of Compound 32 dissolved in saline five days week from the age of nine months. The mice in the control group (n=48 eyes) were orally administered with the saline. The mice in the both groups were allowed to freely drink water. At the age of 6, 9, 10, 11, 12, 13, 14, and 15 months, the mice were examined by fundus photographs, optical coherence tomography (OCT) (Multiline OCT, Heidelberg Engineering) and electroretinogram (ERG).

CCR2 deficient mice = test: Experiment 2: Suppression of formation of drusen in young mice; type: in vivo
Description: Experiment 2: Suppression of Formation of Drusen in Young Mice
The effect of the compound of number 32 (Compound 32) to suppress the formation of the drusen in young mice was tested. CCR2 deficient mice were used. The mice were allowed to freely drink water containing 0.385 mg/ml of Compound 32 from the age of two months. The mice in the control group were allowed to freely drink water not containing Compound 32. At the age of 2, 3.5, 6, and 9 months, the mice were examined by fundus photographs, OCT, and ERG.

Cc1cc(F)ccc1-c1ccc(/N=N/c2cc(S(=O)(=O)[O-])c3ccccc3c2N)cn1.[Na+] [Compound 32, 4-amino-3-[6-(4-fluoro-2-methylphenyl)pyridine-3-ylazo]naphthalene-1-sulfonic acid sodium salt]
numbers of the drusen found in the fundus photographs (FIG. 5) ([1]; aged CCR2 deficient mice, oral 50 mg/kg/day from age of nine months, age 6 to 15 months, vs saline control): the drusen were gradually increased in the control group but not in the mice administered with Compound 32 | drusen in fundus photographs (FIGS. 2 to 4) ([1]; aged CCR2 deficient mice, oral 50 mg/kg/day in saline five days a week from age of nine months, photographs at age 9 and 15 months): the drusen disappeared in the area bounded by the line | time-dependent change of the numbers of the drusen in individual mice (FIG. 6) ([1]; mice 1 to 4 administered with Compound 32, oral 50 mg/kg/day from age of nine months): gradually decreased after the administration | b-wave amplitudes in the electroretinogram (FIG. 7) ([1]; mice at the age of 15 months, oral 50 mg/kg/day from age of nine months, vs control, p=<0.05): retinal function is better in the mice administered with Compound 32 than in the control mice | a-wave amplitudes in the electroretinogram (FIG. 14) (CCR2 deficient mice; mice at the age of 9 months, drinking water 0.385 mg/ml from age of two months, vs control, p=<0.001): function of photoreceptor cells is better in the mice administered with Compound 32 than in the control mice | b-wave amplitudes in the electroretinogram (FIG. 13) (CCR2 deficient mice; mice at the age of 9 months, drinking water 0.385 mg/ml from age of two months, vs control, p=<0.05): retinal function is better in the mice administered with Compound 32 than in the control mice | number of the drusen found in the fundus photographs (FIG. 12) (CCR2 deficient mice; young CCR2 deficient mice, drinking water 0.385 mg/ml from age of two months, age 2, 3.5, 6 and 9 months, vs control, p=<0.05): the drusen were gradually increased in the control group but not in the mice administered with Compound 32 | drusen in fundus photographs (FIGS. 9 to 11) (CCR2 deficient mice; young CCR2 deficient mice, drinking water containing 0.385 mg/ml from age of two months, photographs at age 3.5, 6, and 9 months): the drusen did not increase
